Activity calls are given as the source filed them. No cut-off for these calls is given here.
Assays:
[1] = Cytotoxicity against human NCI60 cells assessed as cell growth relative to control; format: functional; design: concentration or dose not given beside the values
[2] = Induction of ROS level in anhydrous acetonitrile electrolyte assessed as first half wave redox potential at 2 mM using Ag/AgCl reference electrode by cyclic voltammetry; format: physicochemical; settings: 2000 µM
Escherichia coli [3] = experiment: Induction of Escherichia coli supercoiled pUC19 DNA cleavage at 240 uM after 24 hrs by agarose gel electrophoresis
[4] = Induction of ROS level in anhydrous acetonitrile electrolyte assessed as second half wave redox potential at 2 mM using Ag/AgCl reference electrode by cyclic voltammetry; format: physicochemical; settings: 2000 µM
Escherichia coli [5] = experiment: Induction of Escherichia coli supercoiled pUC19 DNA cleavage assessed as appearance of nicked supercoiled DNA after 24 hrs by agarose gel electrophoresis in absence of transition metal complex, light irradiation or oxidative reagent
[6] = Induction of ROS level assessed as half reduction potential using saturated calomel electrode by cyclic voltammetry; format: physicochemical
[7] = Induction of ROS level assessed as half reduction potential using Ag/AgCl reference electrode by cyclic voltammetry; format: physicochemical
A549 [8] = experiment: Induction of apoptosis in human A549 cells assessed as mitochondrial membrane damage at 100 uM after 24 hrs by microscopy; format: functional, cell-based
A549 [9] = experiment: Growth inhibition of human A549 cells assessed as reduction in cell viability after 48 hrs by MTT assay; format: functional, cell-based; settings: A549, 48 h
A549 [10] = experiment: Cell cycle arrest in human A549 cells assessed as accumulation at G1 phase at 0.01 to 100 uM after 24 hrs by propidium idoide staining based flow cytometry; format: functional
A549 [11] = experiment: Reduction of glutathione level in human A549 cells at 1 uM after 48 hrs by fluorometric assay; format: functional; design: scale not given: the % may be the effect or the level left
A549 [12] = experiment: Induction of apoptosis in human A549 cells assessed as nuclear condensation at 100 uM after 24 hrs by microscopy; format: functional, cell-based
A549 [13] = experiment: Induction of mitochondrial membrane potential loss in human A549 cells at 1 uM after 24 hrs by rhodamine 123 staining based flow cytometry (reference value: 1.7%); format: functional
A549 [14] = experiment: Induction of alteration in mitochondrial membrane potential in human A549 cells after 24 hrs by rhodamine 123 staining based flow cytometry; format: functional, cell-based
A549 [15] = experiment: Cell cycle arrest in human A549 cells assessed as accumulation at sub G1 phase at 0.01 to 100 uM after 24 hrs by propidium idoide staining based flow cytometry; format: functional
A549 [16] = experiment: Induction of mitochondrial membrane potential loss in human A549 cells at 10 to 100 nM after 24 hrs by rhodamine 123 staining based flow cytometry (reference value: 1.7%); format: functional
A549 [17] = experiment: Reduction of glutathione level in human A549 cells at 0.1 uM after 48 hrs by fluorometric assay; format: functional; design: scale not given: the % may be the effect or the level left
A549 [18] = experiment: Selectivity index, ratio of IC50 for human […] cells to IC50 for human A549 cells; format: functional
A549 [19] = experiment: Induction of mitochondrial membrane potential loss in human A549 cells at 100 uM after 24 hrs by rhodamine 123 staining based flow cytometry (reference value: 1.7%); format: functional
A549 [20] = experiment: Reduction of glutathione level in human A549 cells at 100 uM after 48 hrs by fluorometric assay; format: functional; design: scale not given: the % may be the effect or the level left
A549 [21] = experiment: Induction of apoptosis in human A549 cells assessed as apoptotic cells at 0.01 uM after 24 hrs by Annexin V/propidium iodide staining based flow cytometry (reference value: 7.7%); format: functional
A549 [22] = experiment: Reduction of glutathione in human A549 cells assessed as glutathione level after 48 hrs by fluorometric assay; format: functional, cell-based
A549 [23] = experiment: Induction of apoptosis in human A549 cells assessed as increase in ROS level at 10 uM after 4 hrs by DCFH-DA staining based flow cytometry relative to control; format: functional
A549 [24] = experiment: Cell cycle arrest in human A549 cells assessed as accumulation at S phase at 0.01 to 100 uM after 24 hrs by propidium idoide staining based flow cytometry; format: functional
A549 [25] = experiment: Induction of apoptosis in human A549 cells assessed as apoptotic cells at 0.1 uM after 24 hrs by Annexin V/propidium iodide staining based flow cytometry (reference value: 7.7%); format: functional
A549 [26] = experiment: Induction of mitochondrial membrane potential loss in human A549 cells at 10 uM after 24 hrs by rhodamine 123 staining based flow cytometry (reference value: 1.7%); format: functional
A549 [27] = experiment: Induction of apoptosis in human A549 cells assessed as increase in ROS level at 100 uM after 4 hrs by DCFH-DA staining based flow cytometry relative to control; format: functional
A549 [28] = experiment: Induction of apoptosis in human A549 cells assessed as increase in ROS level at 10 to 100 nM after 4 hrs by DCFH-DA staining based flow cytometry; format: functional, cell-based
A549 [29] = experiment: Cell cycle arrest in human A549 cells assessed as accumulation at G2 phase at 0.01 to 100 uM after 24 hrs by propidium idoide staining based flow cytometry; format: functional
A549 [30] = experiment: Reduction of glutathione level in human A549 cells at 10 uM after 48 hrs by fluorometric assay; format: functional; design: scale not given: the % may be the effect or the level left
A549 [31] = experiment: Induction of apoptosis in human A549 cells assessed as cell shrinkage at 1 to 100 uM after 24 hrs by microscopy; format: functional, cell-based
A549 [32] = experiment: Induction of apoptosis in human A549 cells assessed as apoptotic cells at 10 uM after 24 hrs by Annexin V/propidium iodide staining based flow cytometry (reference value: 7.7%); format: functional
A549 [33] = experiment: Induction of apoptosis in human A549 cells assessed as apoptotic cells at 1 uM after 24 hrs by Annexin V/propidium iodide staining based flow cytometry (reference value: 7.7%); format: functional
A549 [34] = experiment: Induction of apoptosis in human A549 cells assessed as apoptotic cells at 100 uM after 24 hrs by Annexin V/propidium iodide staining based flow cytometry (reference value: 7.7%); format: functional
[35] = Growth inhibition of human […] cells assessed as reduction in cell viability after 48 hrs by MTT assay; format: cell-based

Compound: COc1ccc(-n2n[n+](C)c3c2C(=O)c2ccccc2C3=O)cc1OC.O=S(=O)([O-])C(F)(F)F
- Activity [1]: -31.51%
- Activity [2]: -182 mV
- Activity (Escherichia coli [3]): Active
- Activity [4]: -885.5 mV

Compound: COc1cc(-n2n[n+](C)c3c2C(=O)c2ccccc2C3=O)cc(OC)c1OC.O=S(=O)([O-])C(F)(F)F
- Activity [1]: 23.23%
- Activity [2]: -168 mV
- Activity (Escherichia coli [3]): Active
- Activity [4]: -867 mV

Compound: C[n+]1nn(-c2ccccc2)c2c1C(=O)c1ccccc1C2=O.O=S(=O)([O-])C(F)(F)F
- Activity [1]: -10.18%
- Activity (Escherichia coli [5]): Dose-dependent effect
- Activity [2]: -163.5 mV
- Activity [4]: -866.5 mV

Compound: C[n+]1nn(-c2ccc(F)cc2)c2c1C(=O)c1ccccc1C2=O.O=S(=O)([O-])C(F)(F)F
- Activity [1]: 43.38%
- Activity [2]: -156.5 mV
- Activity (Escherichia coli [3]): Active
- Activity [4]: -886 mV

Compound: COC1=C(OC)C(=O)C(C/C=C(\C)CC/C=C(\C)CC/C=C(\C)CC/C=C(\C)CC/C=C(\C)CC/C=C(\C)CC/C=C(\C)CC/C=C(\C)CC/C=C(\C)CCC=C(C)C)=C(C)C1=O [UBIDECARENONE]
- Activity [6]: -602 mV
- Activity [7]: -567 mV

Compound: Cc1ccc(-n2n[n+](C)c3c2C(=O)c2ccccc2C3=O)cc1.O=S(=O)([O-])C(F)(F)F
- Activity [1]: 11.53%
- Activity [2]: -176 mV
- Activity (Escherichia coli [3]): Active
- Activity [4]: -881.5 mV

Compound: COc1ccc(-n2n[n+](C)c3c2C(=O)c2ccccc2C3=O)cc1.O=S(=O)([O-])C(F)(F)F
- Activity (A549 [8]): Active
- IC50 (A549 [9]): 4.2 µM
- Activity [1]: -24.7%
- Activity (A549 [10]): inactive
- Activity (A549 [11]): 88.76%
- Activity (A549 [12]): Active
- Activity (A549 [13]): 4.1%
- Activity (A549 [14]): Dose-dependent effect
- Activity (A549 [15]): inactive
- Activity (A549 [16]): 2.55%
- Activity (A549 [17]): 99.35%
- Ratio IC50 (A549 [18]): 8
- Activity (A549 [19]): 88.05%
- Activity (A549 [20]): 12.13%
- Activity (A549 [21]): 8.74%
- Activity (A549 [22]): Dose-dependent effect
- Activity (A549 [23]): 133%
- Activity (A549 [24]): inactive
- Activity (A549 [25]): 11.06%
- Activity (A549 [26]): 51.4%
- Activity (A549 [27]): 226%
- Activity (A549 [28]): inactive
- Activity (A549 [29]): inactive
- Activity [2]: -182.5 mV
- Activity (Escherichia coli [3]): Active
- Activity [4]: -885 mV
- Activity (A549 [30]): 23.87%
- Activity (A549 [31]): Active
- Activity (A549 [32]): 35.44%
- Activity (A549 [33]): 11.07%
- Activity (A549 [34]): 61.28%
- IC50 [35]: 35 µM

Compound: COc1cc(OC)cc(-n2n[n+](C)c3c2C(=O)c2ccccc2C3=O)c1.O=S(=O)([O-])C(F)(F)F
- Activity [1]: -27.06%
- Activity [2]: -182.5 mV
- Activity (Escherichia coli [3]): Active
- Activity [4]: -762 mV

Compound: C[n+]1nn(-c2ccc(C(F)(F)F)cc2)c2c1C(=O)c1ccccc1C2=O.O=S(=O)([O-])C(F)(F)F
- Activity [1]: 58.69%
- Activity [2]: -130.5 mV
- Activity (Escherichia coli [3]): Active
- Activity [4]: -823.5 mV

Compound: C[n+]1nn(-c2ccc(Cl)cc2)c2c1C(=O)c1ccccc1C2=O.O=S(=O)([O-])C(F)(F)F
- Activity [1]: 101.7%
- Activity [2]: -148.5 mV
- Activity (Escherichia coli [3]): Active
- Activity [4]: -842.5 mV

Compound: CCCCCCCCn1n[n+](C)c2c1C(=O)c1ccccc1C2=O.O=S(=O)([O-])C(F)(F)F
- IC50 (A549 [9]): 83.3 µM
- Activity (A549 [19]): 50%
- Activity (A549 [23]): 108%
- Activity (A549 [26]): 25%
- Activity (A549 [27]): 177%

Compound: COc1cc([C@@H]2c3cc4c(cc3[C@@H](O[C@@H]3O[C@@H]5CO[C@@H](C)O[C@H]5[C@H](O)[C@H]3O)[C@H]3COC(=O)[C@H]23)OCO4)cc(OC)c1O [ETOPOSIDE]
- IC50 (A549 [9]): 3.9 µM
